According to PMC8201479, “Trisubstituted Pyrrolinones as Small-Molecule Inhibitors Disrupting the Protein–RNA Interaction of LIN28 and Let-7” (ACS Medicinal Chemistry Letters, 2021):

Target: T1, LIN28–let-7 complex (Homo sapiens, UniProt Q9H9Z2)
T1 construct: Purified LIN28A (residues 16–187) was incubated at a concentration of 200 nM; His-tag (cleaved yes); made in house; host or cells: Escherichia coli BL21(DE3)
T1 sequence (Q9H9Z2 16-187): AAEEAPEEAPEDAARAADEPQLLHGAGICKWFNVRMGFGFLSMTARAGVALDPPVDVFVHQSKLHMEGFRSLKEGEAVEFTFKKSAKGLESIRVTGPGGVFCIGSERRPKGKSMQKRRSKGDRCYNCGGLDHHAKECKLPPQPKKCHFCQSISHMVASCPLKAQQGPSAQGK
Test: Electrophoretic mobility shift assay (EMSA)
Assay type: binding
Protocol: was detected after incubation at room temperature using a TECAN Spark plate reader. Half maximal
inhibitory concentrations (IC50) were determined using GraphPad Prism 7.
Compound screening. High throughput screening was performed in low volume 384 well plates
(Corning 4514) with 30 µM compound, 40 nM LIN28A, and 2 nM preE-let-7f-1-FAM in FP assay
buffer. Compounds were transferred with an ECHO 520 liquid handler and protein and RNA were
added with a multidrop dispenser. Protein and RNA were added stepwise with a 30 min incubation
period in between. FP was detected after a final incubation of 15 min with an Envision plate reader
and fluorescence was measured with a Paradigm plate reader. A reaction without LIN28 served as a
negative control and one without compound was used as a positive control. The software Quattro
Workflow (Quattro Research GmbH) was used for the analysis of screening data.
Electrophoretic mobility shift assay. EMSA was used as a secondary assay to validate FP-assay hit
molecules. Purified LIN28A (residues 16–187) was incubated with compound and 5 U recombinant
ribonuclease inhibitor (Takara Bio) in EMSA reaction buffer (50 mM Tris (pH 7.5), 100 mM NaCl,
10 mM β-mercaptoethanol, 50 µM ZnCl2, 2 % DMSO, 0.01 % Tween 20, 12 % glycerol) for 2 hours
at room temperature. Subsequently, preE-let-7f-1-Cy3 (mus musculus) (GGGGUAGUGAUUUUAC
CCUGUUUAGGAGAU-Cy3, purchased from IDT) was added to a final concentration of 5 nM and
a reaction volume of 50 µL. The final concentration of LIN28A was 10 nM and compound
concentrations up to 75 µM were used. The reaction mixtures were incubated for a further 15 minutes
and 10 µL loading dye (40 % glycerol, 1.5x TAE) was added. 10 µL of each reaction was separated
in an 8 % polyacrylamide TAE gel at 4 °C and 220 V for 1 h using 0.25x TAE as running buffer. Cy3
fluorescence was detected with a ChemiDoc M P (Bio-Rad) and 2 minutes of exposure time.
Thermal shift assay. Thermal stability of the cold shock domain construct LIN28 A (residues 16–
126) with and without compound was monitored using a NanoTemper Prometheus NT.48 nano -

O=C(C1=C(O)C(=O)N(c2ccc(O)c(C(=O)O)c2)C1c1ccc(-c2nccs2)cc1)c1ccc(Br)cc1 (centres unmarked) [C902/PH-31]
inhibition of the LIN28–let-7 complex in EMSA (compound concentrations up to 75 µM): dose-dependent micromolar inhibition | IC50 (relative fluorescence intensity of let-7f divided by that of LIN28–let-7f complex plus let-7f): 38 µM
